The values below come from ChEMBL document CHEMBL1201862, “PubChem BioAssay data set” (2004).

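Following 48 hours of exposure in 96-well plates, responses at five concentrations were used to interpolate endpoints linearly. Abbreviation: GI50, concentration required for 50% inhibition of growth.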 Calls of active or inactive are those of the source. Cut-off read from the data, not from the text of the source: active = GI50 up to about 1.1 µM and inactive = higher.

Test in all cases: NCI tumour cell line growth inhibition, 48 h
In assay [1] the test system is ACHN.
Assay [2] deals with COLO 205.
Assay [3] relates to DU-145.
Assay [4] deals with HCT-15.
Assay [5] has as its system K562.
In assay [6] the test system is MCF7.
Assay [7] deals with NCI-H226.
For assay [8], the system named is NCI-H23.
For assay [9], the system named is NCI-H460.
The test system of assay [10] is OVCAR-8.
For assay [11], the system named is RPMI-8226.
Assay [12] relates to SF-295.
Assay [13] deals with SK-MEL-28.
The subject of assay [14] is SK-MEL-2.
For assay [15], the system named is SK-OV-3.
Assay [16] concerns SR.
Assay [17] concerns SW-620.
Assay [18] relates to T47D.
Assay [19] deals with UACC-257.
Assay [20] concerns UO-31.

As to `Cc1nn(-c2ccccc2)c2c1CC(=O)Nc1ccccc1-2`, the GI50 in [1] was 1.05 µM (active); in assay [2], 0.538 µM (active); in assay [3], 2.65 µM (inactive); in [4], 0.618 µM; in assay [5], 0.412 µM (active); in assay [6] it was 0.372 µM (active). Also, the GI50 in [7] is 5.01 µM (inactive); in assay [8] it was 1.6 µM (inactive); in assay [9], 0.521 µM (active); in assay [10], 2.06 µM (inactive); in assay [11] it was 0.484 µM (active); in assay [12] it was 0.318 µM (active). Further, the GI50 in assay [13] is 0.839 µM (active); in assay [14], 1.65 µM (inactive); in [15] it was 1.81 µM (inactive); in assay [16] it was 0.269 µM (active); in [17] it was 0.374 µM (active); in assay [18] it was > 10 µM (inactive). For the same compound, the values for the GI50 in assay [19] and in assay [20] were 0.555 µM (active) and 2.94 µM (inactive), respectively.
Regarding `COc1ccc(C2c3cc4c(cc3OC(NNC(N)=O)C2C)OCO4)cc1` (stereo unspecified), the GI50 in assay [1] is 8.75 µM (inactive); in assay [2], 3.95 µM (inactive); in assay [3], 22.3 µM (inactive); in assay [4], 3.94 µM; in assay [5], 2.86 µM (inactive); in [6], 4.21 µM (inactive). Further, the GI50 is 14.9 µM (inactive) in [7]; 14.6 µM (inactive) in assay [8]; 4.94 µM (inactive) in assay [9]; 6.67 µM (inactive) in [10]; 3.3 µM (inactive) in assay [11]; 3.58 µM (inactive) in [12]. Also, the GI50 in assay [13] is 7.23 µM (inactive); in assay [14] it was 10.8 µM (inactive); in [15], 5.26 µM (inactive); in assay [16], 1.9 µM (inactive); in assay [17], 3.56 µM (inactive); in [18] it was 27.4 µM (inactive). Also, the values for the GI50 in assay [19] and in assay [20] were 10.2 µM (inactive) and 10.6 µM (inactive), respectively.
Turning to `O=C1c2ccccc2C(=O)c2c1ccc1conc21`, the GI50 in [1] is 1.94 µM (inactive); in assay [2], 5.65 µM (inactive); in assay [3], 2.59 µM (inactive); in assay [4], 2.75 µM; in assay [5], 1.85 µM (inactive); in assay [6] it was 1.03 µM (active). Also, the GI50 in assay [7] was 7.06 µM (inactive); in assay [8] it was 1.36 µM (inactive); in assay [9] it was 5.51 µM (inactive); in assay [10] it was 1.66 µM (inactive); in assay [11] it was 0.875 µM (active); in [12], 2.65 µM (inactive). The GI50 in [13] is 3.41 µM (inactive); in assay [14], 3.52 µM (inactive); in assay [15], 6.46 µM (inactive); in [16], 1.36 µM (inactive); in assay [17] it was 2.1 µM (inactive); in [18] it was 0.398 µM (active). For the same compound, the GI50 in assay [19] was 1.98 µM (inactive); in assay [20], 4.33 µM (inactive).
For `CCCCCOC(=O)C(=O)Nc1[nH]nnc1C(N)=O`, the GI50 in [1] was > 100 µM (inactive); in assay [2], > 100 µM (inactive); in [3] it was > 100 µM (inactive); in assay [4], over 100 µM; in assay [5], > 100 µM (inactive); in [6], > 100 µM (inactive). The GI50 in assay [7], in [8], in assay [9], in [10], in assay [11] and in assay [12] was > 100 µM (inactive) throughout. Also, the GI50 in assay [13], in assay [14], in assay [15], in assay [16], in assay [17] and in assay [18] was > 100 µM (inactive) each time. Also, the GI50 in assay [19] and in [20] was > 100 µM (inactive) each time.
As for `O=S(=O)(CCCCl)SCCCCl`, the GI50 is 55.7 µM (inactive) in assay [1]; 29 µM (inactive) in [2]; 63.8 µM (inactive) in [3]; 23.3 µM in assay [4]; 7.5 µM (inactive) in [5]; 19.6 µM (inactive) in assay [6]. Further, the GI50 in assay [7] is > 65.5 µM (inactive); in [8], 45.1 µM (inactive); in assay [9] it was 39.4 µM (inactive); in assay [10] it was 13.3 µM (inactive); in assay [11], 21.9 µM (inactive); in assay [12], > 64.9 µM (inactive). For the same compound, the GI50 in assay [13] is 39.3 µM (inactive); in [14], 44.8 µM (inactive); in [15], > 83 µM (inactive); in assay [16], 10.4 µM (inactive); in assay [17] it was 19.1 µM (inactive); in assay [18], 26.9 µM (inactive). Moreover, the GI50 is 45.9 µM (inactive) in assay [19] and 65.5 µM (inactive) in assay [20].
As to `CCCCC(=O)NC1(c2cc3ccccc3s2)CCCCC1`, the GI50 was > 100 µM (inactive) in assay [1]; > 100 µM (inactive) in [2]; > 100 µM (inactive) in [3]; over 100 µM in [4]; > 100 µM (inactive) in [5]; 85.9 µM (inactive) in assay [6]. Besides, the GI50 in assay [7] is > 100 µM (inactive); in [8], > 100 µM (inactive); in [9], > 100 µM (inactive); in [10] it was 80.4 µM (inactive); in assay [11], 8.81 µM (inactive); in assay [12] it was > 100 µM (inactive). The GI50 in [13], in [14], in [15], in [16], in [17] and in assay [18] was > 100 µM (inactive) in each case. Moreover, the GI50 in [19] and in [20] was > 100 µM (inactive) each time.
Regarding `CN(C)N1C(=O)SCC(c2ccccc2)(c2ccccc2)C1=O`, the GI50 is > 100 µM (inactive) in assay [1]; > 100 µM (inactive) in assay [2]; > 100 µM (inactive) in assay [3]; over 100 µM in assay [4]; 87.7 µM (inactive) in [5]; 54.8 µM (inactive) in [6]. Besides, the GI50 in [7] was > 100 µM (inactive); in [8], > 100 µM (inactive); in assay [9], > 100 µM (inactive); in assay [10], > 100 µM (inactive); in assay [11], 78 µM (inactive); in [12] it was > 100 µM (inactive). Further, the GI50 in assay [13] is > 100 µM (inactive); in assay [14] it was 63.4 µM (inactive); in [15], > 100 µM (inactive); in [16], > 100 µM (inactive); in assay [17], > 100 µM (inactive); in assay [18] it was > 100 µM (inactive). The GI50 in assay [19] and in [20] was > 100 µM (inactive) in each case.
Regarding `C=C1CC2C[C@H](OS(=O)(=O)c3ccc(C)cc3)C(C1)N2C` (stereo partly specified), the GI50 in [2] was > 100 µM (inactive); in assay [3], > 100 µM (inactive); in assay [4], over 100 µM; in assay [5], > 100 µM (inactive); in assay [6], > 100 µM (inactive); in [7] it was > 100 µM (inactive). In addition, the GI50 in assay [8], in assay [9], in assay [10], in [11], in assay [12] and in assay [13] was > 100 µM (inactive) throughout. The GI50 in assay [14], in [15], in assay [16], in assay [17], in assay [18] and in assay [19] was > 100 µM (inactive) each time. The GI50 in assay [20] was > 100 µM (inactive).
Turning to `O=[N+]([O-])C1(C2([N+](=O)[O-])CCCC2)CCCC1`, the GI50 in [2] was > 100 µM (inactive); in [3] it was > 100 µM (inactive); in assay [4] it was over 100 µM; in assay [5], > 100 µM (inactive); in assay [6] it was > 100 µM (inactive); in assay [7] it was > 100 µM (inactive). Besides, the GI50 in assay [8], in [9], in assay [10], in assay [11], in assay [13] and in assay [14] was > 100 µM (inactive) each time. The GI50 is > 100 µM (inactive) in assay [15]; > 100 µM (inactive) in assay [16]; > 100 µM (inactive) in assay [17]; > 100 µM (inactive) in assay [18]; > 100 µM (inactive) in assay [19]; 57.1 µM (inactive) in [20].
For `N=c1oc2ccccc2cc1-c1nc2ccccc2[nH]1`, the GI50 in assay [1] was 16.9 µM (inactive); in assay [2], 51.2 µM (inactive); in [3], 18.4 µM (inactive); in [4], 31.5 µM; in assay [5], 18.9 µM (inactive); in [6] it was 19.9 µM (inactive). Besides, the GI50 in [7] is > 100 µM (inactive); in [9] it was 49.1 µM (inactive); in assay [10], 71.6 µM (inactive); in assay [11], 26.3 µM (inactive); in [12], 78.3 µM (inactive); in assay [13], 89.9 µM (inactive). The GI50 in assay [14] is 49.2 µM (inactive); in [15] it was 13.6 µM (inactive); in assay [16], 19.2 µM (inactive); in assay [17], 36.6 µM (inactive); in assay [18] it was 16.7 µM (inactive); in assay [19], > 100 µM (inactive). The GI50 in assay [20] is 12.1 µM (inactive).
